Reference: publication PMC9569420 (Communications Biology, 2022)
Several values for one entry are separate records, joined by “and”; a condition that tells them apart may be missing. Identical values can stand only once.

Legend:
[1] = molecular target: T1, MARK2/PAR-1Ba (Homo sapiens, UniProt Q7KZI7); assay: HotSpot kinase assay; format: biochemical; conditions: read-out: % Enzyme Activity (relative to DMSO controls)
T1 construct: purchased Reaction Biology Corporation

[2] = molecular target: T2, AKT1 (Homo sapiens, UniProt P31749); assay: biochemical
T2 construct: purchased Reaction Biology Corporation

[3] = molecular target: T3, MSK1/RPS6KA5 (Homo sapiens, UniProt O75582); assay: HotSpot kinase assay; format: biochemical; conditions: read-out: % Enzyme Activity (relative to DMSO controls)
T3 construct: purchased Reaction Biology Corporation

[4] = molecular target: T4, ZIPK/DAPK3 (Homo sapiens, UniProt O43293); assay: HotSpot kinase assay; format: biochemical; conditions: read-out: % Enzyme Activity (relative to DMSO controls)
T4 construct: purchased Reaction Biology Corporation

[5] = molecular target: T5, MEK2 (Homo sapiens, UniProt P36507); assay: HotSpot kinase assay; format: biochemical; conditions: read-out: % Enzyme Activity (relative to DMSO controls)
T5 construct: purchased Reaction Biology Corporation

[6] = molecular target: T6, FMS (Homo sapiens, UniProt P07333); assay: HotSpot kinase assay; format: biochemical; conditions: read-out: % Enzyme Activity (relative to DMSO controls)
T6 construct: purchased Reaction Biology Corporation

[7] = molecular target: T7, CAMK4 (Homo sapiens, UniProt Q16566); assay: HotSpot kinase assay; format: biochemical; conditions: read-out: % Enzyme Activity (relative to DMSO controls)
T7 construct: purchased Reaction Biology Corporation

[8] = molecular target: T8, STK21/CIT (Homo sapiens, UniProt O14578); assay: HotSpot kinase assay; format: biochemical; conditions: read-out: % Enzyme Activity (relative to DMSO controls)
T8 construct: purchased Reaction Biology Corporation

[9] = tested on: HSV-2(G); assay: synchronized infection (entry) assay, HaCat cells; format: cell-based; conditions: 10 μM
Procedure: To quantify viral entry, cells were synchronously infected by allowing virus to bind to cells at 4°C for 4 h, washed, and then transferred to 37 °C. CIMSS or control DMSO was added at the time of temperature shift. At indicated times post-temperature shift, the cells were treated with a low pH buffer to inactivate virus that had not penetrated, washed, overlaid with medium containing methyl cellulose and viral plaques were counted at 48 h. Entry was also assessed by immunoblotting nuclear extracts for VP16. […] Nuclear extracts were prepared after 1 h and analyzed by western blot with antibodies targeting VP16, histone H1 and golgin-97[5]. The non-nuclear fraction was also probed for golgin-97 as a positive control. […] After 1 or 4 h of incubation, the cells were fixed. Plasma membranes were stained using Image -IT^TM LIVE Plasma Membrane kit and nuclei were stained with DAPI (Thermo Fisher Scientific, Cat 134406). The percentage of GFP + nuclei was determined by counting ~200 cells over 3–4 fields. Images were obtained with Leica SP8 microscope (objective 63 × 1.4); xz images were captured with optical slice 0.6 µm, 25–30 slices per image.

[10] = molecular target: T9, PKN1/PRK1 (Homo sapiens, UniProt Q16512); assay: HotSpot kinase assay; format: biochemical; conditions: read-out: % Enzyme Activity (relative to DMSO controls)
T9 construct: purchased Reaction Biology Corporation

[11] = molecular target: T10, IRR/INSRR (Homo sapiens, UniProt P14616); assay: HotSpot kinase assay; format: biochemical; conditions: read-out: % Enzyme Activity (relative to DMSO controls)
T10 construct: purchased Reaction Biology Corporation

[12] = molecular target: T11, EIF2AK4 (Homo sapiens, UniProt Q9P2K8); assay: HotSpot kinase assay; format: biochemical; conditions: read-out: % Enzyme Activity (relative to DMSO controls)
T11 construct: purchased Reaction Biology Corporation

[13] = molecular target: T12, TNIK (Homo sapiens, UniProt Q9UKE5); assay: HotSpot kinase assay; format: biochemical; conditions: read-out: % Enzyme Activity (relative to DMSO controls)
T12 construct: purchased Reaction Biology Corporation

[14] = molecular target: T13, OSR1/OXSR1 (Homo sapiens, UniProt O95747); assay: HotSpot kinase assay; format: biochemical; conditions: read-out: % Enzyme Activity (relative to DMSO controls)
T13 construct: purchased Reaction Biology Corporation

[15] = molecular target: T14, SRMS (Homo sapiens, UniProt Q9H3Y6); assay: HotSpot kinase assay; format: biochemical; conditions: read-out: % Enzyme Activity (relative to DMSO controls)
T14 construct: purchased Reaction Biology Corporation

[16] = molecular target: T15, ALK1/ACVRL1 (Homo sapiens, UniProt P37023); assay: HotSpot kinase assay; format: biochemical; conditions: read-out: % Enzyme Activity (relative to DMSO controls)
T15 construct: purchased Reaction Biology Corporation

[17] = molecular target: T16, PKCtheta (Homo sapiens, UniProt Q04759); assay: HotSpot kinase assay; format: biochemical; conditions: read-out: % Enzyme Activity (relative to DMSO controls)
T16 construct: purchased Reaction Biology Corporation

[18] = molecular target: T17, MEK3 (Homo sapiens, UniProt P46734); assay: HotSpot kinase assay; format: biochemical; conditions: read-out: % Enzyme Activity (relative to DMSO controls)
T17 construct: purchased Reaction Biology Corporation

[19] = molecular target: T18, PAK4 (Homo sapiens, UniProt O96013); assay: HotSpot kinase assay; format: biochemical; conditions: read-out: % Enzyme Activity (relative to DMSO controls)
T18 construct: purchased Reaction Biology Corporation

[20] = molecular target: T19, SIK1 (Homo sapiens, UniProt P57059); assay: HotSpot kinase assay; format: biochemical; conditions: read-out: % Enzyme Activity (relative to DMSO controls)
T19 construct: purchased Reaction Biology Corporation

[21] = molecular target: T20, PKN2/PRK2 (Homo sapiens, UniProt Q16513); assay: HotSpot kinase assay; format: biochemical; conditions: read-out: % Enzyme Activity (relative to DMSO controls)
T20 construct: purchased Reaction Biology Corporation

[22] = molecular target: T21, PIM2 (Homo sapiens, UniProt Q9P1W9); assay: HotSpot kinase assay; format: biochemical; conditions: read-out: % Enzyme Activity (relative to DMSO controls)
T21 construct: purchased Reaction Biology Corporation

[23] = molecular target: T22, CAMK2b (Homo sapiens, UniProt Q13554); assay: HotSpot kinase assay; format: biochemical; conditions: read-out: % Enzyme Activity (relative to DMSO controls)
T22 construct: purchased Reaction Biology Corporation

[24] = molecular target: T23, SGK1 (Homo sapiens, UniProt O00141); assay: HotSpot kinase assay; format: biochemical; conditions: read-out: % Enzyme Activity (relative to DMSO controls)
T23 construct: purchased Reaction Biology Corporation

[25] = molecular target: T24, TAOK1 (Homo sapiens, UniProt Q7L7X3); assay: HotSpot kinase assay; format: biochemical; conditions: read-out: % Enzyme Activity (relative to DMSO controls)
T24 construct: purchased Reaction Biology Corporation

[26] = molecular target: T25, ERK5/MAPK7 (Homo sapiens, UniProt Q13164); assay: HotSpot kinase assay; format: biochemical; conditions: read-out: % Enzyme Activity (relative to DMSO controls)
T25 construct: purchased Reaction Biology Corporation

[27] = molecular target: T26, ALK (Homo sapiens, UniProt Q9UM73); assay: HotSpot kinase assay; format: biochemical; conditions: read-out: % Enzyme Activity (relative to DMSO controls)
T26 construct: purchased Reaction Biology Corporation

[28] = molecular target: T27, ROS/ROS1 (Homo sapiens, UniProt P08922); assay: HotSpot kinase assay; format: biochemical; conditions: read-out: % Enzyme Activity (relative to DMSO controls)
T27 construct: purchased Reaction Biology Corporation

[29] = tested on: VSV-S; format: cell-based, VSV pseudotyped with SARS-CoV-2 spike
[30] = molecular target: T28, CDK8/cyclin C (Homo sapiens, UniProt P49336); assay: HotSpot kinase assay; format: biochemical; conditions: read-out: % Enzyme Activity (relative to DMSO controls)
T28 construct: purchased Reaction Biology Corporation

[31] = molecular target: T29, TESK2 (Homo sapiens, UniProt Q96S53); assay: HotSpot kinase assay; format: biochemical; conditions: read-out: % Enzyme Activity (relative to DMSO controls)
T29 construct: purchased Reaction Biology Corporation

[32] = molecular target: T30, PIM1 (Homo sapiens, UniProt P11309); assay: HotSpot kinase assay; format: biochemical; conditions: read-out: % Enzyme Activity (relative to DMSO controls)
T30 construct: purchased Reaction Biology Corporation

[33] = molecular target: T31, GSK3b (Homo sapiens, UniProt P49841); assay: biochemical; conditions: read-out: % Enzyme Activity (relative to DMSO controls)
T31 construct: purchased Reaction Biology Corporation

[34] = molecular target: T32, TIE2/TEK (Homo sapiens, UniProt Q02763); assay: HotSpot kinase assay; format: biochemical; conditions: read-out: % Enzyme Activity (relative to DMSO controls)
T32 construct: purchased Reaction Biology Corporation

[35] = molecular target: T33, MST1/STK4 (Homo sapiens, UniProt Q13043); assay: HotSpot kinase assay; format: biochemical; conditions: read-out: % Enzyme Activity (relative to DMSO controls)
T33 construct: purchased Reaction Biology Corporation

[36] = molecular target: T34, LCK2/ICK (Homo sapiens, UniProt Q9UPZ9); assay: HotSpot kinase assay; format: biochemical; conditions: read-out: % Enzyme Activity (relative to DMSO controls)
T34 construct: purchased Reaction Biology Corporation

T2 sequence (P31749 whole entry): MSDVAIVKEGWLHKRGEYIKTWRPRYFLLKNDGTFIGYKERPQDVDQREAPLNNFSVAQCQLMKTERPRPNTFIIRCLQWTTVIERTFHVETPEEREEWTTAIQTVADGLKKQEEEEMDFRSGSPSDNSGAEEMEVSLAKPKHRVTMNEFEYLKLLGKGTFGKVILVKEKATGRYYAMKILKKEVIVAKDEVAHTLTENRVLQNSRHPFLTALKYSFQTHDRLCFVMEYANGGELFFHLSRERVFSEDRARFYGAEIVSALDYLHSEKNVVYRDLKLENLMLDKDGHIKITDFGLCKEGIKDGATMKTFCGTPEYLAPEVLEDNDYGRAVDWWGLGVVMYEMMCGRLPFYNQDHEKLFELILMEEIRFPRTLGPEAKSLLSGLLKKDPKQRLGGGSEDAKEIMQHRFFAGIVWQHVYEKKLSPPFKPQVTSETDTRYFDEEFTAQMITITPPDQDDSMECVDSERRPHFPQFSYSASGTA
T28 sequence (P49336 whole entry): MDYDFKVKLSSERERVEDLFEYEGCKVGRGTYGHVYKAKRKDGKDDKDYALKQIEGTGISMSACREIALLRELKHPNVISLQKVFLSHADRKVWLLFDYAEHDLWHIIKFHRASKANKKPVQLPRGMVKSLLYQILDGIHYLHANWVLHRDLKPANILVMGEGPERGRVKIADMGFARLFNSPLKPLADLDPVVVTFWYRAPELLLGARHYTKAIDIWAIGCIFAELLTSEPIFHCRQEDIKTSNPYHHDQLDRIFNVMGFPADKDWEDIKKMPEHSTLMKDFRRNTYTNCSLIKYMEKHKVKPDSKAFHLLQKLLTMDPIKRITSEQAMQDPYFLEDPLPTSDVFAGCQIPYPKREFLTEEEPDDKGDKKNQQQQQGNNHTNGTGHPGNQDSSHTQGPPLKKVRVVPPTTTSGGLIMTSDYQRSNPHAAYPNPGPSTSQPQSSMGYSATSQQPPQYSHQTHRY
T28 sequence (P24863 whole entry partner): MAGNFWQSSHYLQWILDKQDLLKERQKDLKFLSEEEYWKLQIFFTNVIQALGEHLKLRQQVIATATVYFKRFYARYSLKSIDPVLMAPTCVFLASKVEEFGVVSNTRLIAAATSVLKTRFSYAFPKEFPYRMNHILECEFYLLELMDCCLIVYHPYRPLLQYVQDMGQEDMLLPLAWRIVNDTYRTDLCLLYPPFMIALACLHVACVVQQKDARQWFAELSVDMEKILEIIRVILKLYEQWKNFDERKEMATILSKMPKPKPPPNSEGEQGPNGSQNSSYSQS
T11 sequence (Q9P2K8 whole entry): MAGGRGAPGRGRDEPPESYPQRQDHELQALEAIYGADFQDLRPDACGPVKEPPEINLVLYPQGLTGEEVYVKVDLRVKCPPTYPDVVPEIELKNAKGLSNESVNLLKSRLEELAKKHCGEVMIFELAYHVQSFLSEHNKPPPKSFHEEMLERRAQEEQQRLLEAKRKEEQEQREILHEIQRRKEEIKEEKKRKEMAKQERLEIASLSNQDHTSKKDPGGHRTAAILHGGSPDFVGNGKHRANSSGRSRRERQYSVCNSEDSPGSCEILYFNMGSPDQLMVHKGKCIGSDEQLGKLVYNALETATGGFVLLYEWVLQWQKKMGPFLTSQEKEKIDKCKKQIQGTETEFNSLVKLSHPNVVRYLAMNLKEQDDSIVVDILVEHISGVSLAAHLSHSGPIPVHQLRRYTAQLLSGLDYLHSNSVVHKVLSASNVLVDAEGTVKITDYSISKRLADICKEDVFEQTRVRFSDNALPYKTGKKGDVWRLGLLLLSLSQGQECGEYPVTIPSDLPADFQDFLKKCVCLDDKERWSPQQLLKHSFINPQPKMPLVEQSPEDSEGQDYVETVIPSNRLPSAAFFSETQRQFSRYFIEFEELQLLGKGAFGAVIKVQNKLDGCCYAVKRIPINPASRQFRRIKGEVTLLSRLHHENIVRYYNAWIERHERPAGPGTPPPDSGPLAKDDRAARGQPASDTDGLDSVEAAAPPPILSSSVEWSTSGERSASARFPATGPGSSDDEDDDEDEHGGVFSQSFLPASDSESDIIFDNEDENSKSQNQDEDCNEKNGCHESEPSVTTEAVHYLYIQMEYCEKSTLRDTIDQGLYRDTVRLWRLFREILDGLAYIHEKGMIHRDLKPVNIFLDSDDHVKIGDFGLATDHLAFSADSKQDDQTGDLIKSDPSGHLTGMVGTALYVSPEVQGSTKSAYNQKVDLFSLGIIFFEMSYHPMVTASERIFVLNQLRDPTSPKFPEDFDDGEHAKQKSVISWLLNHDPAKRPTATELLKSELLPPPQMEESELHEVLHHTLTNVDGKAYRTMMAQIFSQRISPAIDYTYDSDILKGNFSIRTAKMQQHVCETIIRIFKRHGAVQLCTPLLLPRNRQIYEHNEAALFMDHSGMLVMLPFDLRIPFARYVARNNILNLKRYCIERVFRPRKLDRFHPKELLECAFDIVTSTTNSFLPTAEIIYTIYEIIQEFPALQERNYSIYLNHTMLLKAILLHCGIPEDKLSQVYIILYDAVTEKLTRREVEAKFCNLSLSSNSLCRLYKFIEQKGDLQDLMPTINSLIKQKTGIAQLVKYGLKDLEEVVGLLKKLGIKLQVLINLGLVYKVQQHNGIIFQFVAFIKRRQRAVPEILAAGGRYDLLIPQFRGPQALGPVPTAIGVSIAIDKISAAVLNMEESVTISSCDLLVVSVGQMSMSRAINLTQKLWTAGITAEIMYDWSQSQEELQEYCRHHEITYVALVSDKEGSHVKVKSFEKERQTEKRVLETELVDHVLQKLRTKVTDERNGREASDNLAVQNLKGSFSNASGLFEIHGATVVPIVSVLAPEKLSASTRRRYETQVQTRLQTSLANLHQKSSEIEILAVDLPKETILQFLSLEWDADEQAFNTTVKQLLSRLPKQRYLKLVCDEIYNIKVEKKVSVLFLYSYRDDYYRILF
T1 sequence (Q7KZI7 1-725 isoform Q7KZI7-4): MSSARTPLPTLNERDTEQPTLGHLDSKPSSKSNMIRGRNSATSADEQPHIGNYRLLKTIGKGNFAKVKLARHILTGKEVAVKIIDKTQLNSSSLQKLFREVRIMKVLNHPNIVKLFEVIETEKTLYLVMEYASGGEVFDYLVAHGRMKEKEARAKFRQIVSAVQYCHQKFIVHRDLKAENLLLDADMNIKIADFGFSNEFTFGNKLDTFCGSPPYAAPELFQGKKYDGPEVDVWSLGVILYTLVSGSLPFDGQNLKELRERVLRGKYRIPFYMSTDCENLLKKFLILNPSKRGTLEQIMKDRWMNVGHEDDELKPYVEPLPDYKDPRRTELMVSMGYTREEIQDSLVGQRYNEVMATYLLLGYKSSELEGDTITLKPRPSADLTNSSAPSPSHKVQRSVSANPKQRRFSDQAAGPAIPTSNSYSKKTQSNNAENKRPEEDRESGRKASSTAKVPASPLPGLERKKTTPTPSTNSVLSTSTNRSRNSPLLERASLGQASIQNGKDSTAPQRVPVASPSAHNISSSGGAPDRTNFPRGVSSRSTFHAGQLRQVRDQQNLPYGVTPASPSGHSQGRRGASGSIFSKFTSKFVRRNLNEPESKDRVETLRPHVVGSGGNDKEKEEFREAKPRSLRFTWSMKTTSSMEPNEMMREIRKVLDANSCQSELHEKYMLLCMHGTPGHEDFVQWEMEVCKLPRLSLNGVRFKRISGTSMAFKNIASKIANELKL
T25 sequence (Q13164 whole entry): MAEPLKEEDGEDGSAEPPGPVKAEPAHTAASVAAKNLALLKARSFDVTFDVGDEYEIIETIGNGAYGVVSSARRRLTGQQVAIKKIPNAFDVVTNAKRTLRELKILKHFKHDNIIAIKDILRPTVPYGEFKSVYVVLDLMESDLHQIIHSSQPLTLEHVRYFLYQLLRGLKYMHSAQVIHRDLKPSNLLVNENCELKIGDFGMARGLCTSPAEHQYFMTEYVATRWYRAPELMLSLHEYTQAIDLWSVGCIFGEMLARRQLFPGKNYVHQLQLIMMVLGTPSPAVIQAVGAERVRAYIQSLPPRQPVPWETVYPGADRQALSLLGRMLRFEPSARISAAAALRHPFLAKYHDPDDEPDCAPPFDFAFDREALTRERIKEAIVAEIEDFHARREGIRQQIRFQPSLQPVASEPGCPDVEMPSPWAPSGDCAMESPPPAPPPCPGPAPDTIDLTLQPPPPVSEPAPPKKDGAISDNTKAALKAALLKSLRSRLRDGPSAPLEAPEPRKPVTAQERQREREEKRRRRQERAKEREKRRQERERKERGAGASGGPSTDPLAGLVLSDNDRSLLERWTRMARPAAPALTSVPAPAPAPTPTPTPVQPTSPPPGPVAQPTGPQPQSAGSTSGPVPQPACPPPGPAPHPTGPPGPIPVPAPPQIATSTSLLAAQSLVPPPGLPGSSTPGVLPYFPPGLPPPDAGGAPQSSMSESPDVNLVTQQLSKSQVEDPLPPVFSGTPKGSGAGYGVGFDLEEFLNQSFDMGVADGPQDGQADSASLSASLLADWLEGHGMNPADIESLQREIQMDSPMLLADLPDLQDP
T21 sequence (Q9P1W9 whole entry): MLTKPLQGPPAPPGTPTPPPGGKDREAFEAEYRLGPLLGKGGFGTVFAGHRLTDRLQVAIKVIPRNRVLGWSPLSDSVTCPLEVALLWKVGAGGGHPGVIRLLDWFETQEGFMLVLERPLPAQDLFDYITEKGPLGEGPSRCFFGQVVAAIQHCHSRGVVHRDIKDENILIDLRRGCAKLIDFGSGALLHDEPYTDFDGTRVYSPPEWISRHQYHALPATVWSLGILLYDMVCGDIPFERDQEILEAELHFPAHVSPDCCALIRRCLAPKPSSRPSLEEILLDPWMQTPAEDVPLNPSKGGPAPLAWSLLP
T30 sequence (P11309 whole entry): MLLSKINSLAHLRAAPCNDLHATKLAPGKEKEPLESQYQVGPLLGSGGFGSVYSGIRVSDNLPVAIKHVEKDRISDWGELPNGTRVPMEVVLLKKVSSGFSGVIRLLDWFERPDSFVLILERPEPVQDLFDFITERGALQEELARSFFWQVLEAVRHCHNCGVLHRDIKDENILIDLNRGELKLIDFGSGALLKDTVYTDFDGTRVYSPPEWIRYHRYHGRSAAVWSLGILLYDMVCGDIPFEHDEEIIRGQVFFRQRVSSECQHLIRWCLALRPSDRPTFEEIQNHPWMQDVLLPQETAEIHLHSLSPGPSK

## CO[C@@H]1[C@H](N(C)C(=O)CCC(=O)NCc2cn(CCCS(=O)(=O)O)nn2)C[C@H]2O[C@]1(C)n1c3ccccc3c3c4c(c5c6ccccc6n2c5c31)C(=O)NC4 [CIMSS]
[1]
  remaining activity at 10 µM: 2.38%
[2]; Supplementary Table 1, read-out: IC50 (Molar concentration)
  IC50: 0.461 µM
[2]; read-out: % Enzyme Activity (relative to DMSO controls), 10µM
  remaining activity at 10 µM: 23.7%
[2]; read-out: inhibition of Akt1
  inhibition at 10 µM: > 75%
[3]
  remaining activity at 10 µM: 1.53%
[4]
  remaining activity at 10 µM: 6.48%
[5]
  remaining activity at 10 µM: 68%
[6]
  remaining activity at 10 µM: 0.52%
[7]
  remaining activity at 10 µM: 66.6%
[8]
  remaining activity at 10 µM: 81.7%
[9]; 1 h post-temperature shift
  plaques counted at 48 h: 11 and 17
[9]; 2 h post-temperature shift
  plaques counted at 48 h: 19 and 11
[9]; each timepoint 0.5–2 h, p < 0.001
  viral plaque formation: significant reduction
[10]
  remaining activity at 10 µM: 2.22%
[11]
  remaining activity at 10 µM: 4.68%
[12]
  remaining activity at 10 µM: 9.5%
[13]
  remaining activity at 10 µM: 1.22%
[14]
  remaining activity at 10 µM: 54.2%
[15]
  remaining activity at 10 µM: 91%
[16]
  remaining activity at 10 µM: 70%
[17]
  remaining activity at 10 µM: 7.08%
[18]
  remaining activity at 10 µM: 49.3%
[19]
  remaining activity at 10 µM: 7.78%
[20]
  remaining activity at 10 µM: 1%
[21]
  remaining activity at 10 µM: 6.62%
[22]
  remaining activity at 10 µM: 21.3%
[23]
  remaining activity at 10 µM: 3.03%
[24]
  remaining activity at 10 µM: 13.4%
[25]
  remaining activity at 10 µM: 6.83%
[26]
  remaining activity at 10 µM: 84.5%
[27]
  remaining activity at 10 µM: 4.12%
[28]
  remaining activity at 10 µM: 4.57%
[29]
  VSV-S infection: inhibited
[30]
  remaining activity at 10 µM: 10.1%
[31]
  remaining activity at 10 µM: 91.2%
[32]
  remaining activity at 10 µM: 0.88%
[33]
  remaining activity at 10 µM: 2.85%
[34]
  remaining activity at 10 µM: 7.56%
[35]
  remaining activity at 10 µM: 4.33%
[36]
  remaining activity at 10 µM: 4.57%
